Laboratory results published in patent US7008636B2, “2,3,5-substituted biphenyls useful in the treatment of insulin resistance and hyperglycemia” (Wyeth, priority 1998, dated 2006).
pIC50: −log10 of the molar value.

Experiments:
[1] = target: T1, recombinant, human protein tyrosine phosphatase (PTP) 1B (hPTP1B) (Homo sapiens, UniProt P18031); test: Inhibition of tri-phosphorylated insulin receptor dodecaphosphopeptide dephosphorylation by hPTP1B; type: biochemical; conditions: 50 μM IR triphosphopeptide substrate, 5 min preincubation and 5 min reaction at 37° C., malachite green-ammonium molybdate phosphate detection
T1 construct: made in house
T1 sequence (P18031 1-435): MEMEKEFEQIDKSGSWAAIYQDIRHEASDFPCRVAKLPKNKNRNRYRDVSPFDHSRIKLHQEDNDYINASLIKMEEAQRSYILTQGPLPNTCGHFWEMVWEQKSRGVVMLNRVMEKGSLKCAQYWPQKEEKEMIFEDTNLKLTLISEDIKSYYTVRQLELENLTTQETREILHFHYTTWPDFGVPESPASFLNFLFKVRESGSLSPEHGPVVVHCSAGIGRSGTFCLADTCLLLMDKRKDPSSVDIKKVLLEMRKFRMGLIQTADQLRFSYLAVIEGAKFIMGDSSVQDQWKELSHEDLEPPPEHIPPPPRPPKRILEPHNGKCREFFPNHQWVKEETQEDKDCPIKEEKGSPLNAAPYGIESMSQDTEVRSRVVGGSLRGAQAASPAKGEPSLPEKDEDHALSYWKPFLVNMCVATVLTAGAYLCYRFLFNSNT

pIC50 [1]	melting point	SMILES
6.71	150 to 153 °C	CCCCCCCCCCCCNC(=O)c1cc(-c2ccccc2)c(OCC(=O)O)c(-c2ccccc2)c1 [Example 8, (5′-Dodecylcarbamoyl-[1,1′;3′,1″]terphenyl-2′-yloxy)-acetic acid]
6.78	65 to 68 °C	CCCCCCCCCCCCNC(=O)c1cc(-c2ccc(OC)cc2)c(OCC(=O)O)c(-c2ccc(OC)cc2)c1 [Example 9, (5′-Dodecylcarbamoyl-4,4″-dimethoxy-[1,1′;3′,1″]terphenyl-2′-yloxy)-acetic acid]
6.99	114 to 117 °C	CCCCCCCCCCCCNC(=O)c1cc(-c2ccc(OC)cc2)c(OCC(=O)O)c(-c2cccc(Cl)c2)c1 [Example 10, (3-Chloro-5′-dodecylcarbamoyl-4″-methoxy-[1,1°;3′]terphenyl-2′-yloxy)-acetic acid]
6.94	57 to 58 °C	CCCCCCCCCCCCNC(=O)c1cc(-c2cccc(OC)c2)c(OCC(=O)O)c(-c2cccc(OC)c2)c1 [Example 11, (5′-Dodecylcarbamoyl-3,3″-dimethoxy-[1,1′;3′1″]terphenyl-2′-yloxy)-acetic acid]
6.49	156 to 158 °C	CC(C)(C)c1ccc(COCCCCCCNC(=O)c2cc(-c3cccc(C(F)(F)F)c3)c(OCC(=O)O)c(-c3cccc(C(F)(F)F)c3)c2)cc1 [Example 13, {5′-[6-(4-tert-Butyl-benzyloxy)-hexylcarbamoyl]-3,3″-bis-trifluoromethyl-[1,1′;3′,1″]terphenyl-2′-yloxy}-acetic acid]
6.44	127 to 130 °C	O=C(O)COc1c(-c2cccc(C(F)(F)F)c2)cc(C(=O)NCCCCCCOCc2ccc(OCc3ccccc3)cc2)cc1-c1cccc(C(F)(F)F)c1 [Example 14, {5′-[6-(4-Benzyloxy-benzyloxy)-hexylcarbamoyl]-3,3″-bis-trifluoromethyl-[1,1′;3′1″]terphenyl-2′-yloxy}-acetic acid]
6.73	79.2 to 80.5 °C	COc1ccc(-c2cc(C(=O)NCCCCCCCCc3ccccc3)cc(-c3cccc(Cl)c3)c2OCC(=O)O)cc1 [Example 15, [3″-Chloro-4-methoxy-5′-(8-phenyl-octylcarbamoyl)-[1,1′;3′,1″]terphenyl-2′-yloxy]-acetic acid]
6.46	66.8 to 67.5 °C	COc1ccc(-c2cc(C(=O)N(C)CCCCCCCCc3ccccc3)cc(-c3cccc(Cl)c3)c2OCC(=O)O)cc1 [Example 16, {3″-Chloro-4-methoxy-5′-[methyl-(8-phenyl-octyl)-carbamoyl]-[1,1′;3′, 1″]terphenyl-2′-yloxy}-acetic acid]
6.55	67.3 to 68.7 °C	COc1cccc(-c2cc(C(=O)NCCCCCCCCc3ccccc3)cc(-c3cccc(OC)c3OCC(=O)O)c2)c1 [Example 17, [3,3″-Dimethoxy-5′-(8-phenyl-octylcarbamoyl)-[1,1′;3′,1″]terphenyl-2-yloxy]-acetic acid]
6.15	74.7 to 75.9 °C	O=C(O)COCCOc1c(-c2cccc(C(F)(F)F)c2)cc(C(=O)NCCCCCCc2ccccc2)cc1-c1cccc(C(F)(F)F)c1 [Example 18, {2-[5′-(6-Phenyl-hexylcarbamoyl)-3,3″-bis-trifluoromethyl-[1,1′;3′,1″]terphenyl-2′-yloxy]-ethoxy}acetic acid]
6.14	149.9 to 150.6 °C	O=C(O)COc1c(-c2cccc(C(F)(F)F)c2)cc(C(=O)NCCCCCCOCc2ccc(F)cc2F)cc1-c1cccc(C(F)(F)F)c1 [Example 19, {5′-[6-(2,4-Difluoro-benzyloxy)-hexylcarbamoyl]-3,3″-bis-trifluoromethyl-[1,1′;3′1″]terphenyl-2′yloxy}-acetic acid]
6.42	133.2 to 133.9 °C	O=C(O)COc1c(-c2cccc(C(F)(F)F)c2)cc(C(=O)NCCCCCCOCc2ccc(-c3ccccc3)cc2)cc1-c1cccc(C(F)(F)F)c1 [Example 20, {5′-[6-(Biphenyl-4-ylmethoxy)-hexylcarbamoyl]-3,3″-bis-trifluoromethyl-[1,1′;3′,1″]terphenyl-2′-yloxy}-acetic acid]
6.06	148.9 to 149.7 °C	COc1cccc(-c2cccc(-c3cc(OC)cc(C(=O)N(C)CCCCCCCCc4ccccc4)c3)c2OCC(=O)O)c1 [Example 21, {3,3″-Dimethoxy-5″-[methyl-(8-phenyl-octyl)-carbamoyl]-[1,1′;3′,1″]terphenyl-2′-yloxy}-acetic acid]
6.60	78.5 to 79.9 °C	O=C(O)COCCOc1c(-c2cc(Cl)cc(Cl)c2)cc(C(=O)NCCCCCCc2ccccc2)cc1-c1cc(Cl)cc(Cl)c1 [Example 22]
6.44	> 95 °C	COc1ccc(-c2cc(C(=O)NCCCCCCCCc3ccccc3)cc(-c3ccc(OC)cc3)c2OCC(=O)[O-])cc1.[Na+] [Example 23, [4,4″-Dimethoxy-5′-(8-phenyl-octylcarbamoyl)-[1,1′;3′,1″]terphenyl-2′yloxy]acetic acid sodium salt]
6.68	90 to 91.2 °C	Cc1cc(COCCCCCCNC(=O)c2cc(-c3ccc(F)c(Cl)c3)c(OCC(=O)O)c(-c3ccc(F)c(Cl)c3)c2)c(C)o1 [Example 26, {3,3″-Dichloro-5′-(6-(2,5-dimethyl-furan-3-ylmethoxy)-hexylcarbamoyl]-4-4″-difluoro-[1,1′;3′,1″]terphenyl-2′-yloxy}-acetic acid]
6.66	107.9 to 108.5 °C	Cc1cc(COCCCCCCNC(=O)c2cc(-c3cccc(C(F)(F)F)c3)c(OCC(=O)O)c(-c3cccc(C(F)(F)F)c3)c2)c(C)o1 [Example 30, {5′-[6-(2,5-Dimethyl-furan-3-ylmethoxy)-hexylcarbamoyl]-3,3″-bis-trifluoromethyl-[1,1′;3′,1″]terphenyl-2′-yloxy}-acetic acid]
7.77	132.5 to 133.7 °C	CCCCCCCCCCCCCCCCNc1c(Nc2cc(-c3ccccc3)c(OCC(=O)O)c(-c3ccccc3)c2)c(=O)c1=O [Example 32, [5′-(2-Hexadecylamino-3,4-dioxo-cyclobut-1-enylamino)-[1,1′;3′,1″]terphenyl-2′-yloxy]-acetic acid]
7.62	90.5 to 92 °C	CCCCCCCCCCCCCCCCCCOc1cc(-c2ccccc2)c(OCC(=O)O)c(-c2ccccc2)c1 [Example 36, (5′-Octadecyloxy-[1,1′;3′,1″]terphenyl-2′-yloxy)-acetic acid]
6.93	> 136 °C (dec.)	O=C(O)COc1c(-c2ccccc2)cc(-c2c3ccccc3cc3sc4ccccc4c23)cc1-c1ccccc1 [Example 37, (5′-Benzo[b]naphtho[2,3-d]thiophen-11-yl-[1,1′;3′,1″]terphenyl-2′-yloxy)-acetic acid]
6.92	113 to 115.5 °C	CCCCCCCCOc1cc(-c2cccc(Cl)c2)c(OCC(=O)O)c(-c2cccc(Cl)c2)c1 [Example 46, (3,3″-Dichloro-5′-octyloxy-[1,1′;3′,1″]terphenyl-2′-yloxy)acetic acid]
6.52	> 100 °C (dec.)	CCCCCCCCOc1cc(-c2cccc(NC(C)=O)c2)c(OCC(=O)O)c(-c2cccc(NC(C)=O)c2)c1 [Example 47, (3,3″-Bis-acetylamino-5′-octyloxy-[1,1′;3′,1″]terphenyl-2′-yloxy)acetic acid]
6.84	75 to 77 °C	CCCCCCCCOc1cc(-c2cccc(C(F)(F)F)c2)c(OCC(=O)O)c(-c2cccc(C(F)(F)F)c2)c1 [Example 48, (5′-Octyloxy-3,3″-bis-trifluoromethyl-[1,1′;3′,1″]terphenyl-2′-yloxy)acetic acid]
6.40	129 to 132 °C	CCCCCCCCOc1cc(-c2cccc([N+](=O)[O-])c2)c(OCC(=O)O)c(-c2cccc([N+](=O)[O-])c2)c1 [Example 49, (3,3″-Dinitro-5′-octyloxy-[1,1′;3′,1″]terphenyl-2′-yloxy)acetic acid]
6.22	178 to 181 °C	O=C(O)COc1c(-c2cccc(Cl)c2)cc(C(=O)NCCCCCCc2ccccc2)cc1-c1cccc(Cl)c1 [Example 80, [3,3″-Dichloro-5′-(6-phenyl-hexylcarbamoyl)-[1,1′;3′,1″]terphenyl-2′-yloxy]acetic acid]
6.48	> 39 °C (dec.)	COc1ccc(-c2cc(C(=O)N(C)CCCCCCCCc3ccccc3)cc(-c3cccc(C(F)(F)F)c3)c2OCC(=O)O)cc1 [Example 81, {4″-Methoxy-5′-[methyl-(8-phenyl-octyl)-carbamoyl]-3-trifluoromethyl-[1,1′;3′1″]-terphenyl-2′-yloxy}acetic acid]
6.75	> 44 °C (dec.)	CN(CCCCCCCCc1ccccc1)C(=O)c1cc(-c2cccc(Cl)c2)c(OCC(=O)O)c(-c2cccc(Cl)c2)c1 [Example 82, {3,3″-Dichloro-5′-[methyl-(8-phenyl-octyl)-carbamoyl]-[1,1′;3′1″]terphenyl-2′-yloxy}acetic acid]
	79.6 to 80.5 °C	CCCCCCCCCCCCNC(=O)c1cc(Br)c(OCCNC(=O)OC)c(-c2cccc(C(F)(F)F)c2)c1 [Example 188, [2-(3-Bromo-5-dodecylcarbamoyl-3′-trifluoromethyl-biphenyl-2-yloxy)-ethyl]-carbamic acid methyl ester]
